Columns and labels:
Experiment in all cases: cells
Type in all cases: functional, cell-based, Homo sapiens
YKG-1 = conditions: Homo sapiens, YKG-1;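 note: cell growth inhibition, read out with a viability assay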
Description: SANGER: Inhibition of human YKG-1 cell growth in a cell viability assay.

SCC-4 = conditions: Homo sapiens, SCC-4;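 note: growth inhibition of human SCC-4 cells, read out as cell viability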
Description: SANGER: Inhibition of human SCC-4 cell growth in a cell viability assay.

BXPC-3 = conditions: Homo sapiens, BXPC-3;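 note: growth inhibition of human BxPC-3 cells, read out by a cell viability assay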
Description: SANGER: Inhibition of human BxPC-3 cell growth in a cell viability assay.

LN-405 = conditions: Homo sapiens, LN-405
Description: SANGER: Inhibition of human LN-405 cell growth in a cell viability assay.

MeWo = conditions: Homo sapiens, MeWo;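 note: growth inhibition of MeWo cells, determined by a cell viability readout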
Description: SANGER: Inhibition of human Mewo cell growth in a cell viability assay.

NCI-H292 = conditions: Homo sapiens, NCI-H292;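 note: growth inhibition of NCI-H292 cells, read out with a cell viability assay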
Description: SANGER: Inhibition of human NCI-H292 cell growth in a cell viability assay.

NCI-H2291 = conditions: Homo sapiens, NCI-H2291
Description: SANGER: Inhibition of human NCI-H2291 cell growth in a cell viability assay.

BPH-1 = conditions: Homo sapiens, BPH-1;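 note: cell viability assay measuring growth inhibition of human BPH-1 cells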
Description: SANGER: Inhibition of human BPH-1 cell growth in a cell viability assay.

NCI-H2087 = conditions: Homo sapiens, NCI-H2087;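 note: growth inhibition determined with a cell viability readout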
Description: SANGER: Inhibition of human NCI-H2087 cell growth in a cell viability assay.

ESS-1 = conditions: Homo sapiens, ESS-1;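 note: growth inhibition of human ESS-1 cells, read out by a cell viability assay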
Description: SANGER: Inhibition of human ESS-1 cell growth in a cell viability assay.

H-EMC-SS = conditions: Homo sapiens, H-EMC-SS
Description: SANGER: Inhibition of human H-EMC-SS cell growth in a cell viability assay.

BT-549 = conditions: Homo sapiens, BT-549
Description: SANGER: Inhibition of human BT-549 cell growth in a cell viability assay.

HPAF-II = conditions: Homo sapiens, HPAF-II;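 note: growth inhibition of HPAF-II cells, read out with a cell viability assay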
Description: SANGER: Inhibition of human HPAF-II cell growth in a cell viability assay.

OVCAR-8 = conditions: Homo sapiens, OVCAR-8;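 note: growth inhibition of human OVCAR-8 cells, read out by a cell viability assay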
Description: SANGER: Inhibition of human OVCAR-8 cell growth in a cell viability assay.

SW1088 = conditions: Homo sapiens, SW1088;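 note: growth inhibition of human SW1088 cells, read out by a cell viability assay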
Description: SANGER: Inhibition of human SW1088 cell growth in a cell viability assay.

COLO-792 = conditions: Homo sapiens, COLO-792
Description: SANGER: Inhibition of human COLO-792 cell growth in a cell viability assay.

HOP-92 = conditions: Homo sapiens, HOP-92;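 note: cell viability readout, with IC50 reflecting inhibition of HOP-92 cell growth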
Description: SANGER: Inhibition of human HOP-92 cell growth in a cell viability assay.

CAL-33 = conditions: Homo sapiens, CAL-33;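 note: growth inhibition of CAL-33 cells, read out with a cell viability assay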
Description: SANGER: Inhibition of human CAL-33 cell growth in a cell viability assay.

GMS-10 = conditions: Homo sapiens, GMS-10;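 note: growth inhibition of GMS-10 cells, read out as cell viability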
Description: SANGER: Inhibition of human GMS-10 cell growth in a cell viability assay.

HCC70 = conditions: Homo sapiens, HCC70;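 note: cell viability assay measuring how strongly the compound suppresses proliferation of HCC70 cells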
Description: SANGER: Inhibition of human HCC70 cell growth in a cell viability assay.

SBC-5 = conditions: Homo sapiens, SBC-5;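 note: cell viability assay read-out, IC50 is the concentration that inhibits growth of the cells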
Description: SANGER: Inhibition of human SBC-5 cell growth in a cell viability assay.

MKN-45 = conditions: Homo sapiens, MKN-45;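 note: growth inhibition of human MKN-45 cells, measured with a cell viability assay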
Description: SANGER: Inhibition of human MKN45 cell growth in a cell viability assay.

HCT-116 = conditions: Homo sapiens, HCT-116
Description: SANGER: Inhibition of human HCT-116 cell growth in a cell viability assay.

SN12C = conditions: Homo sapiens, SN12C;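 note: growth inhibition of human SN12C cells, measured by a cell viability assay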
Description: SANGER: Inhibition of human SN12C cell growth in a cell viability assay.

786-0 = conditions: Homo sapiens
Description: SANGER: Inhibition of human 786-0 cell growth in a cell viability assay.

SK-MEL-24 = conditions: Homo sapiens, SK-MEL-24;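 note: growth inhibition read out by a cell viability assay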
Description: SANGER: Inhibition of human SK-MEL-24 cell growth in a cell viability assay.

UMC-11 = conditions: Homo sapiens, UMC-11;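 note: growth inhibition of UMC-11 cells, read out with a cell viability assay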
Description: SANGER: Inhibition of human UMC-11 cell growth in a cell viability assay.

MDA-MB-175-VII = conditions: Homo sapiens, MDA-MB-175-VII
COR-L105 = conditions: Homo sapiens, COR-L105;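 note: cell growth inhibition determined with a viability assay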
Description: SANGER: Inhibition of human COR-L105 cell growth in a cell viability assay.

HuP-T4 = conditions: Homo sapiens, HuP-T4;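 note: cell viability assay measuring how much HuP-T4 cell growth is inhibited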
Description: SANGER: Inhibition of human HuP-T4 cell growth in a cell viability assay.

BHY = conditions: Homo sapiens, BHY;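 note: cell growth inhibition read out by a viability assay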
Description: SANGER: Inhibition of human BHY cell growth in a cell viability assay.

Ca9-22 = conditions: Homo sapiens, Ca9-22;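 note: growth inhibition of Ca9-22 cells, read out with a cell viability assay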
Description: SANGER: Inhibition of human Ca9-22 cell growth in a cell viability assay.

8505C = conditions: Homo sapiens, 8505C
Description: SANGER: Inhibition of human 8505C cell growth in a cell viability assay.

GAMG = conditions: Homo sapiens, GAMG;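 note: cell growth inhibition measured by a viability assay in the GAMG human cell line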
Description: SANGER: Inhibition of human GAMG cell growth in a cell viability assay.

SNU-387 = conditions: Homo sapiens, SNU-387
Description: SANGER: Inhibition of human SNU-387 cell growth in a cell viability assay.

NCI-H1437 = conditions: Homo sapiens, NCI-H1437;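 note: growth inhibition of human NCI-H1437 cells, read out by a cell viability assay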
Description: SANGER: Inhibition of human NCI-H1437 cell growth in a cell viability assay.

Measured: IC50

CC1(C)CNc2cc(NC(=O)c3cccnc3NCc3ccncc3)ccc21 [MOTESANIB]
> 2000 nM: all assays above

CCN(CC)CCCCNc1ncc2cc(-c3cc(OC)cc(OC)c3)c(NC(=O)NC(C)(C)C)nc2n1 [PD-173074]
347 nM: H-EMC-SS
> 2000 nM: all other assays above

Cn1cnc2c(F)c(Nc3ccc(Br)cc3Cl)c(C(=O)NOCCO)cc21 [SELUMETINIB]
353 nM: NCI-H1437
1550 nM: CAL-33
195 nM: HuP-T4
3340 nM: HPAF-II
1060 nM: HCT-116
1120 nM: NCI-H292
3960 nM: SN12C
521 nM: MeWo
2380 nM: Ca9-22
1810 nM: BHY
762 nM: NCI-H2291
1190 nM: COLO-792
182 nM: BPH-1
1380 nM: NCI-H2087
291 nM: H-EMC-SS
3130 nM: COR-L105
not listed: MKN-45 | SK-MEL-24
> 4000 nM: all other assays above

— ChEMBL document CHEMBL1201861, “Genomics of Drug Sensitity in Cancer screening data, Wellcome Trust Sanger Institute”
